Patent publication US20230085307A1, “PYRIDAZINONE COMPOUND AND HERBICIDE” (NISSAN CHEMICAL CORPORATION, priority 2019, published 2023)

Columns and labels:
southern crabgrass [1] = test: Test Example 4: herbicidal effect by soil treatment (Table 19, symbol F); format: in vivo, southern crabgrass (Digitaria ciliaris); details: amount of applied herbicide 320 g/ha
Procedure, shortened: (§1)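 Soil-surface application: an emulsion agent diluted with water to the predetermined dose is sprayed uniformly over seeds lying under roughly 1.5 cm of sterilized diluvial soil. Boxes stay in a greenhouse at 25° C. to 30° C. Three weeks later, each species is graded on previously defined criteria.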

late watergrass = test: Test Example 2: herbicidal activity, application during weed generation under submerged conditions (Table 17, symbol A); format: in vivo, late watergrass (Echinochloa oryzicola); details: AAH 320 g/ha; application during weed generation, submerged conditions
Procedure, shortened: (§2)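 Mixed weed seedlings in alluvial soil under a 4 cm water layer, greenhouse-grown at 25–30° C. Compound given as a diluted emulsion into the floodwater at the 1–2 leaf stage; response graded after three weeks.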

lambsquarters [2] = test: Test Example 5: herbicidal effect by foliage application, plastic box (Table 20, symbol O); format: in vivo, lambsquarters (Chenopodium album); details: foliage application, 320 g/ha, evaluated three weeks after application
Procedure, shortened: (§3)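 Sow seeds spot-wise in sterilized diluvial soil; cover with ~1.5 cm soil. Grow 14 days in greenhouse, 25° C. to 30° C. Spray foliage with emulsion diluted to predetermined amount. Rate effect after 3 weeks.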

lambsquarters [3] = test: Test Example 4: herbicidal effect by soil treatment (Table 19, symbol O); format: in vivo, lambsquarters (Chenopodium album); details: amount of applied herbicide 320 g/ha
Procedure, shortened: as §1

persian speedwell [4] = test: Test Example 5: herbicidal effect by foliage application, plastic box (Table 20, symbol R); format: in vivo, Persian speedwell (Veronica persica); details: foliage application, 320 g/ha, evaluated three weeks after application
Procedure, shortened: as §3

redroot pigweed [5] = test: Test Example 4: herbicidal effect by soil treatment (Table 19, symbol N); format: in vivo, redroot pigweed (Amaranthus retroflexus); details: amount of applied herbicide 320 g/ha
Procedure, shortened: as §1

barnyard grass [6] = test: Test Example 5: herbicidal effect by foliage application, plastic box (Table 20, symbol H); format: in vivo, barnyard grass (Echinochloa crus-galli); details: foliage application, 320 g/ha, evaluated three weeks after application
Procedure, shortened: as §3

false cleavers [7] = test: Test Example 5: herbicidal effect by foliage application, plastic box (Table 20, symbol Q); format: in vivo, false cleavers (Galium spurium); details: foliage application, 320 g/ha, evaluated three weeks after application
Procedure, shortened: as §3

blackgrass = test: Test Example 5: herbicidal effect by foliage application, plastic box (Table 20, symbol J); format: in vivo, blackgrass (Alopecurus myosuroides); details: foliage application, 320 g/ha, evaluated three weeks after application
Procedure, shortened: as §3

persian speedwell [8] = test: Test Example 4: herbicidal effect by soil treatment (Table 19, symbol R); format: in vivo, Persian speedwell (Veronica persica); details: amount of applied herbicide 320 g/ha
Procedure, shortened: as §1

Italian ryegrass [9] = test: Test Example 5: herbicidal effect by foliage application, plastic box (Table 20, symbol K); format: in vivo, Italian ryegrass (Lolium multiflorum); details: foliage application, 320 g/ha, evaluated three weeks after application
Procedure, shortened: as §3

rice flat sedge = test: Test Example 3: herbicidal effect by foliage application, Wagner pot (Table 18, symbol E); format: in vivo, rice flat sedge (Cyperus iria); details: amount of applied herbicide 320 g/ha
Procedure, shortened: (§4)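 Plants were sown in alluvial soil held under 0.1–0.5 cm standing water and grown 14 days in a greenhouse at 25–30 °C. An emulsifiable formulation, water-diluted to the set dose, was then sprayed onto the foliage, and effects were scored three weeks later using previously defined criteria.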

Chinese sprangletop = test: Test Example 3: herbicidal effect by foliage application, Wagner pot (Table 18, symbol D); format: in vivo, chinese sprangletop (Leptochloa chinensis); details: amount of applied herbicide 320 g/ha
Procedure, shortened: as §4

green foxtail [10] = test: Test Example 4: herbicidal effect by soil treatment (Table 19, symbol G); format: in vivo, green foxtail (Setaria viridis); details: amount of applied herbicide 320 g/ha
Procedure, shortened: as §1

chickweed [11] = test: Test Example 4: herbicidal effect by soil treatment (Table 19, symbol P); format: in vivo, common chickweed (Stellaria media); details: amount of applied herbicide 320 g/ha
Procedure, shortened: as §1

velvetleaf [12] = test: Test Example 4: herbicidal effect by soil treatment (Table 19, symbol M); format: in vivo, velvetleaf (Abutilon theophrasti); details: amount of applied herbicide 320 g/ha
Procedure, shortened: as §1

oval-leafed pondweed = test: Test Example 2: herbicidal activity, application during weed generation under submerged conditions (Table 17, symbol C); format: in vivo, oval-leafed pondweed (Monochoria vaginalis); details: AAH 320 g/ha; application during weed generation, submerged conditions
Procedure, shortened: as §2

green foxtail [13] = test: Test Example 5: herbicidal effect by foliage application, plastic box (Table 20, symbol G); format: in vivo, green foxtail (Setaria viridis); details: foliage application, 320 g/ha, evaluated three weeks after application
Procedure, shortened: as §3

Italian ryegrass [14] = test: Test Example 4: herbicidal effect by soil treatment (Table 19, symbol K); format: in vivo, Italian ryegrass (Lolium multiflorum); details: amount of applied herbicide 320 g/ha
Procedure, shortened: as §1

barnyard grass [15] = test: Test Example 3: herbicidal effect by foliage application, Wagner pot (Table 18, symbol H); format: in vivo, barnyard grass (Echinochloa crus-galli); details: amount of applied herbicide 320 g/ha
Procedure, shortened: as §4

southern crabgrass [16] = test: Test Example 5: herbicidal effect by foliage application, plastic box (Table 20, symbol F); format: in vivo, southern crabgrass (Digitaria ciliaris); details: foliage application, 320 g/ha, evaluated three weeks after application
Procedure, shortened: as §3

Japanese bulrush = test: Test Example 2: herbicidal activity, application during weed generation under submerged conditions (Table 17, symbol B); format: in vivo, Japanese bulrush (Schoenoplectus juncoides); details: AAH 320 g/ha; application during weed generation, submerged conditions
Procedure, shortened: as §2

windgrass [17] = test: Test Example 5: herbicidal effect by foliage application, plastic box (Table 20, symbol L); format: in vivo, windgrass (Apera spica-venti); details: foliage application, 320 g/ha, evaluated three weeks after application
Procedure, shortened: as §3

redroot pigweed [18] = test: Test Example 5: herbicidal effect by foliage application, plastic box (Table 20, symbol N); format: in vivo, redroot pigweed (Amaranthus retroflexus); details: foliage application, 320 g/ha, evaluated three weeks after application
Procedure, shortened: as §3

windgrass [19] = test: Test Example 4: herbicidal effect by soil treatment (Table 19, symbol L); format: in vivo, windgrass (Apera spica-venti); details: amount of applied herbicide 320 g/ha
Procedure, shortened: as §1

false cleavers [20] = test: Test Example 4: herbicidal effect by soil treatment (Table 19, symbol Q); format: in vivo, false cleavers (Galium spurium); details: amount of applied herbicide 320 g/ha
Procedure, shortened: as §1

barnyard grass [21] = test: Test Example 4: herbicidal effect by soil treatment (Table 19, symbol H); format: in vivo, barnyard grass (Echinochloa crus-galli); details: amount of applied herbicide 320 g/ha
Procedure, shortened: as §1

velvetleaf [22] = test: Test Example 5: herbicidal effect by foliage application, plastic box (Table 20, symbol M); format: in vivo, velvetleaf (Abutilon theophrasti); details: foliage application, 320 g/ha, evaluated three weeks after application
Procedure, shortened: as §3

wild oat [23] = test: Test Example 5: herbicidal effect by foliage application, plastic box (Table 20, symbol I); format: in vivo, wild oat (Avena fatua); details: foliage application, 320 g/ha, evaluated three weeks after application
Procedure, shortened: as §3

chickweed [24] = test: Test Example 5: herbicidal effect by foliage application, plastic box (Table 20, symbol P); format: in vivo, common chickweed (Stellaria media); details: foliage application, 320 g/ha, evaluated three weeks after application
Procedure, shortened: as §3

wild oat [25] = test: Test Example 4: herbicidal effect by soil treatment (Table 19, symbol I); format: in vivo, wild oat (Avena fatua); details: amount of applied herbicide 320 g/ha
Procedure, shortened: as §1

## CCCC(=O)Oc1c(C)nn(C)c(=O)c1-c1c(-c2ccc3c(c2)OCCO3)sc2ccc(Cl)cc12 [2-128]
Southern crabgrass [1]
  F: southern crabgrass, herbicidal effect rating: 0 (Herbicidal rate of 5% or less (almost no effect))
Late watergrass
  herbicidal effect rating, A: late watergrass: 0 (Herbicidal rate of 5% or less (almost no effect))
Lambsquarters [2]
  herbicidal effect on O: lambsquarters: 1 (Herbicidal rate of 5% or more and less than 20%)
Lambsquarters [3]
  O: lambsquarters, herbicidal effect rating: 0 (Herbicidal rate of 5% or less (almost no effect))
Persian speedwell [4]
  herbicidal effect on R: persian speedwell: 5 (Herbicidal rate of 90% or more (almost completely withered))
Redroot pigweed [5]
  N: redroot pigweed, herbicidal effect rating: 0 (Herbicidal rate of 5% or less (almost no effect))
Barnyard grass [6]
  herbicidal effect on H: barnyard grass: 0 (Herbicidal rate of 5% or less (almost no effect))
False cleavers [7]
  herbicidal effect on Q: false cleavers: 0 (Herbicidal rate of 5% or less (almost no effect))
blackgrass
  herbicidal effect on J: blackgrass: 0 (Herbicidal rate of 5% or less (almost no effect))
Persian speedwell [8]
  R: persian speedwell, herbicidal effect rating: 5 (Herbicidal rate of 90% or more (almost completely withered))
Italian ryegrass [9]
  herbicidal effect on K: Italian ryegrass: 0 (Herbicidal rate of 5% or less (almost no effect))
Rice flat sedge
  herbicidal effect on E: rice flat sedge: 0 (Herbicidal rate of 5% or less (almost no effect))
Chinese sprangletop
  herbicidal effect on D: Chinese sprangletop: 0 (Herbicidal rate of 5% or less (almost no effect))
Green foxtail [10]
  G: green foxtail, herbicidal effect rating: 0 (Herbicidal rate of 5% or less (almost no effect))
Chickweed [11]
  P: chickweed, herbicidal effect rating: 1 (Herbicidal rate of 5% or more and less than 20%)
Velvetleaf [12]
  M: velvetleaf, herbicidal effect rating: 0 (Herbicidal rate of 5% or less (almost no effect))
oval-leafed pondweed
  herbicidal effect rating, C: oval-leafed pondweed: 3 (Herbicidal rate of 40% or more and less than 70%)
Green foxtail [13]
  herbicidal effect on G: green foxtail: 0 (Herbicidal rate of 5% or less (almost no effect))
Italian ryegrass [14]
  K: Italian ryegrass, herbicidal effect rating: 0 (Herbicidal rate of 5% or less (almost no effect))
Barnyard grass [15]
  herbicidal effect on H: barnyard grass: 3 (Herbicidal rate of 40% or more and less than 70%)
Southern crabgrass [16]
  herbicidal effect on F: southern crabgrass: 0 (Herbicidal rate of 5% or less (almost no effect))
Japanese bulrush
  herbicidal effect rating, B: Japanese bulrush: 0 (Herbicidal rate of 5% or less (almost no effect))
Windgrass [17]
  herbicidal effect on L: windgrass: 0 (Herbicidal rate of 5% or less (almost no effect))
Redroot pigweed [18]
  herbicidal effect on N: redroot pigweed: 3 (Herbicidal rate of 40% or more and less than 70%)
Windgrass [19]
  L: windgrass, herbicidal effect rating: 0 (Herbicidal rate of 5% or less (almost no effect))
False cleavers [20]
  Q: false cleavers, herbicidal effect rating: 0 (Herbicidal rate of 5% or less (almost no effect))
Barnyard grass [21]
  H: barnyard grass, herbicidal effect rating: 0 (Herbicidal rate of 5% or less (almost no effect))
Velvetleaf [22]
  herbicidal effect on M: velvetleaf: 2 (Herbicidal rate of 20% or more and less than 40%)
Wild oat [23]
  herbicidal effect on I: wild oat: 0 (Herbicidal rate of 5% or less (almost no effect))
Chickweed [24]
  herbicidal effect on P: chickweed: 5 (Herbicidal rate of 90% or more (almost completely withered))
Wild oat [25]
  I: wild oat, herbicidal effect rating: 0 (Herbicidal rate of 5% or less (almost no effect))
